What all share (assay type): cell-based
One experiment concerns the target T1, FKBP* (Homo sapiens, UniProt P62942, F37V).
T1 construct: HA; expressed in transfected cells; host or cells: 293FT cells (CRBN-WT or CRBN-/-)
Kind of experiment: Immunoblot of FKBP* degradation in 293FT cells (CRBN-WT or CRBN-/-). The conditions noted are these: 293FT CRBN-WT; pretreated two hours with 1 uM Carfilzomib, 0.5 uM MLN4924 or 10 uM Lenalidomide, then 4 hour dFKBP13. As for the experimental part:
FIG. 6 is an immunoblot of cells treated with bi-functional molecules described in the present invention. As described in Example 3, 293FT cells (CRBN-WT or CRBN−/−) expressing either HA-tagged FKBP12WT or FKBP* (also referred to as dFKBP12* herein) were treated with indicated concentrations of dFKBP7 for 4 hours.
FIG. 8 is an immunoblot of cells treated with heterobifunctional compounds described in the present invention. Isogenic 293FT cells (CRBN-WT or CRBN−/−) expressing either FKBP12WT or FKBP* were treated with 100 nM of either dFKBP7 or dFKBP13 for 4 hours (Example 5).
FIG. 9 is an immunoblot of cells treated with heterobifunctional compounds described in the present invention. Isogenic 293FT cells (CRBN-WT or CRBN−/−) expressing HA-tagged FKBP* were treated with the indicated dose of dFKBP13 for 4 hours (Example 6).
FIG. 11 is an immunoblot of cells treated with heterobifunctional compounds described in the present invention. 293FT cells (CRBN-WT) expressing FKBP* were pretreated with 1 uM Carfilzomib (proteasome inhibitor), 0.5 uM MLN4924 (neddylation inhibitor), and 10 uM Lenalidomide (CRBN binding ligand) for two hours prior to a 4 hour treatment with dFKBP13 (Example 8). Degradation of HA-tagged FKBP* by dFKBP13 was rescued by the proteasome inhibitor Carfilzomib, establishing a requirement for proteasome function.
The dTAG is predicated on the selectivity of FKBP* specific ligands over endogenous, wild type FKBP. In 293T cells expressing wild type FKBP12 or FKBP*, dFKBP7 induces targeted degradation only in FKBP* expressing cells. An immunoblot of cells treated with bi-functional molecules described in the present invention was performed. 293FT cells (CRBN-WT or CRBN−/−) expressing either HA-tagged FKBP12WT or FKBP* were treated with indicated concentrations of dFKBP7 for 4 hours.
In 293T cells expressing wild type FKBP12 or FKBP*, treatment with dFKBP7 and dFKBP13 induces targeted degradation only in FKBP* expressing cells. Isogenic 293FT cells (CRBN-WT or CRBN−/−) were engineered to express either FKBP12WT or FKBP*. Cells were treated with 100 nM of either dFKBP7 or dFKBP13 for 4 hours before lysates were prepared for western immunoblot analysis.
In an effort to define the optimal concentration of dFKB13 heterobifunctional compounds to induce degradation of FKBP*, degradation was measured upon treatment with increasing concentrations of dFKBP13. Isogenic 293FT cells (CRBN-WT or CRBN−/−) were engineered to expressed HA-tagged FKBP*. Cells were treated with the indicated dose of dFKBP13 for 4 hours before lysates were prepared for western immunoblot analysis.
293FT cells (CRBN-WT) were engineered to express FKBP*. Cells were pretreated with 1 uM Carfilzomib (proteasome inhibitor), 0.5 uM MLN4924 (neddylation inhibitor), and 10 uM Lenalidomide (CRBN binding ligand) for two hours prior to a 4-hour treatment with dFKBP13. Lysates were prepared and western immunoblot analysis performed. Degradation of HA-tagged FKBP* by dFKBP13 was rescued by the proteasome inhibitor Carfilzomib, establishing a requirement for proteasome function.

In another experiment the test system is FKBP*-KRASG12V. Nature of the experiment: Immunoblot of FKBP*-KRASG12V degradation in NIH3T3 cells. The conditions noted are these: NIH3T3 cells expressing dTAG-KRASG12V; 1 μM, 24 hours. As to the method: (§1) FIG. 19 is an immunoblot of NIH3T3 cells expressing KRASG12V allele fused to FKBP* in the N-terminus or C-terminus. Cells were treated with 500 nM dFKBP7 for the indicated time. Cells were harvested and immunoblotted to measure degradation of FKBP*-KRASG12V and downstream surrogates of KRAS signaling (e.g. pMEK and pAKT).
(§2) Cells were harvested and immunoblotted to measure degradation of FKBP*-KRASG12V and downstream surrogates of KRAS signaling (e.g. pMEK and pAKT).
as §2, §2
Cells were treated with 500 nM dFKBP7 for the indicated time. Cells were harvested and immunoblotted to measure degradation of FKBP*-KRAS and downstream surrogates of KRAS signaling (e.g. pMEK and pAKT).
(§3) Cells were harvested and immunoblotted to measure degradation of FKBP*-KRAS and downstream surrogates of KRAS signaling (e.g. pMEK and pAKT).
as §3
To evaluate the kinetic control of targeted degradation of dTAG-KRAS, dFKBP13 was administered by increased duration. […]
(In western blotting, separated proteins are transferred to a membrane and probed.)

Experiment [1] has as its system KRAS signaling (pMEK and pAKT). Nature of the experiment: Immunoblot of downstream surrogates of KRAS signaling in NIH3T3 cells expressing FKBP*-KRASG12V. The conditions noted are these: NIH3T3 cells expressing dTAG-KRASG12V; 1 μM, 24 hours. As for the experimental part: as §1
FIG. 20 is an immunoblot of NIH3T3 cells expressing FKBP* fused to the N-terminus of KRASG12V treated with 1 uM of the indicated dFKBP heterobifunctional compounds for 24 hours. Cells were harvested and immunoblotted to measure degradation of FKBP*-KRASG12V and downstream surrogates of KRAS signaling (e.g. pMEK and pAKT).
FIG. 21 is an immunoblot of NIH3T3 cells expressing FKBP* fused to the N-terminus of KRASG12V treated with the indicated concentrations of dFKBP13 for 24 hours. Cells were harvested and immunoblotted to measure degradation of FKBP*-KRASG12V and downstream surrogates of KRAS signaling (e.g. pMEK and pAKT).
FIG. 22 is an immunoblot of NIH3T3 cells expressing FKBP* fused to the N-terminus of KRASG12V treated with 1 uM dFKBP13 for the indicated time. Cells were harvested and immunoblotted to measure degradation of FKBP*-KRASG12V and downstream surrogates of KRAS signaling (e.g. pMEK and pAKT).
Cells were treated with 500 nM dFKBP7 for the indicated time. […]

Each structure is given as a SMILES string.

T1 sequence (P62942 whole entry F37V): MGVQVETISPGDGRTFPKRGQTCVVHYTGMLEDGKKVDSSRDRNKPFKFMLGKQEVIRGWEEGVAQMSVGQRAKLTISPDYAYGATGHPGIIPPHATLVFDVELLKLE

Take `CC(C)C[C@H](NC(=O)[C@H](CCc1ccccc1)NC(=O)CN1CCOCC1)C(=O)N[C@@H](Cc1ccccc1)C(=O)N[C@@H](CC(C)C)C(=O)[C@@]1(C)CO1` [Carfilzomib]: the “Effect of pretreatment on dFKBP13-induced degradation of HA-tagged FKBP*” value (shortened to “Effect of pretreatment”) at FKBP* is “rescued”.

Regarding `CC[C@H](C(=O)N1CCCC[C@H]1C(=O)O[C@H](CCc1ccc(OC)c(OC)c1)c1cccc(OCC(=O)NCCCCCCCCNC(=O)COc2cccc3c2C(=O)N(C2CCC(=O)NC2=O)C3=O)c1)c1cc(OC)c(OC)c(OC)c1` (some centres unmarked) [dFKBP9], the “Degradation of FKBP*-KRAS” value in the experiment with FKBP*-KRASG12V is “potent degradation of FKBP*-KRAS”. In experiment [1], the “Inhibition of downstream signaling (pMEK, pAKT)” value is on record as “inhibition of downstream signaling”. On to `Nc1cccc2c1CN(C1CCC(=O)NC1=O)C2=O` (centres unmarked) [Lenalidomide], for which the “Effect of pretreatment” value at FKBP* was “abolished dFKBP13-dependent FKBP* degradation”. Take `NS(=O)(=O)OC[C@@H]1C[C@@H](n2ccc3c(N[C@H]4CCc5ccccc54)ncnc32)C[C@@H]1O` [MLN4924]: the “Effect of pretreatment” value on FKBP* was “rescued HA-tagged FKBP*”.

These data come from US11311609B2, “Regulating chimeric antigen receptors” (DANA-FARBER CANCER INSTITUTE, INC., priority 2017, dated 2022).
